The values below come from US20100160391A1, “Substituted Aminopyridines as Fluorescent Reporters for Amide Hydrolases” (priority 2006, published 2010).

Data set [1] can be described thus: Molar extinction coefficient of fluorescent reporters. It is filed as physicochemical. The note with it: H2O containing 1% ethanol, 290 nm, 30° C., 10-50 μM. As to the method: Molar extinction coefficient. According to Beer's law, Aλ=ε*C*L, where Aλ is the absorbance at wavelength (λ nm); ε is called the molar extinction coefficient; L is the width of the sample cuvette; and C is the concentration of the solute. In this example, a series of concentrations falling between 10 and 50 μM (final concentration) for each fluorescent reporter was used for determination of the molar extinction coefficient. Assays were performed in a quartz cuvette (1 cm optical passage). 10 μl of a stock solution of a reporter in ethanol (1, 2, 3, 4, or 5 mM) was added to 990 μl H2O. The resulting mixture was degassed by sonication with ultrasonic cleaner Model 750 (VWR International; Wester, Pa.) for 10 seconds at a power level of 9. Measurements were performed with a Spectra Max M2 spectrophotometer (Molecular Devices; Sunnyvale, Calif.) at a wavelength of 290 nm. A slope (or extinction coefficient) was obtained by using an average absorbance of triplicate samples.

Data set [2] can be described thus: Maximal excitation and emission wavelengths. The class given is physicochemical. As to conditions: 50 μM in 0.1 M phosphate buffer, 30° C.; SD ±2 nm. As to the method: Maximal excitation and emission wavelengths. A stock solution in ethanol of each compound (10 μl, 5 mM) was added to 990 μl of sodium phosphate buffer (0.1 M, pH 8.0, final substrate concentration 50 μM) in a 1-cm quartz cuvette. The quartz cuvette was scanned from 200 to 500 nm for absorption spectra with a Spectra Max M2 spectrophotometer. Maximal excitation and emission wavelengths were obtained from scanning from 250 to 600 nm and 360 to 600 nm by a 2 nm interval at 30° C., respectively.

The conditions of data set [3]: 3-aminopyridine in water, from Weisstuch et al.; cited from earlier work.
The conditions of data set [4]: cited from earlier work; for ØF, fluorescence quantum yield: in water, literature value.
Data set [5] is described as follows: Comparison of aqueous solubility of substrates (absorbance at 800 nm). As to conditions: 0.1 M phosphate buffer (pH 8.0), 1% ethanol, 37° C. The class given is physicochemical. As to the method:
Comparison of aqueous solubility of substrates. The aqueous solubility of the aminopyridine derivatives (e.g., 13, 14) and the 7-aminocoumarin derivative (e.g., 15) was determined in clear 96-well styrene flat-bottom microtiter plates with a Spectra Max M2 spectrophotometer. Different concentrations of the substrates (13, 14 and 15; final concentration: 0.39, 0.78, 1.56, 3.13, 6.25, 12.5, 25, 50, 100, or 200 μM) in 200 μl 0.1 M sodium phosphate buffer (1% ethanol; pH 8.0) were used and the absorbance was recorded at a wavelength of 800 nm at 37° C. The measurements were performed in three replicates for each concentration.

For data set [6], the target named is T1, microsomal fatty acid amide hydrolase (FAAH) (Homo sapiens, UniProt O00519).
T1 construct: made in house; host or cells: Trichoplusia ni High Five cells infected with recombinant baculovirus Ac-hFAAH; microsomal fraction
T1 sequence (O00519 1-579): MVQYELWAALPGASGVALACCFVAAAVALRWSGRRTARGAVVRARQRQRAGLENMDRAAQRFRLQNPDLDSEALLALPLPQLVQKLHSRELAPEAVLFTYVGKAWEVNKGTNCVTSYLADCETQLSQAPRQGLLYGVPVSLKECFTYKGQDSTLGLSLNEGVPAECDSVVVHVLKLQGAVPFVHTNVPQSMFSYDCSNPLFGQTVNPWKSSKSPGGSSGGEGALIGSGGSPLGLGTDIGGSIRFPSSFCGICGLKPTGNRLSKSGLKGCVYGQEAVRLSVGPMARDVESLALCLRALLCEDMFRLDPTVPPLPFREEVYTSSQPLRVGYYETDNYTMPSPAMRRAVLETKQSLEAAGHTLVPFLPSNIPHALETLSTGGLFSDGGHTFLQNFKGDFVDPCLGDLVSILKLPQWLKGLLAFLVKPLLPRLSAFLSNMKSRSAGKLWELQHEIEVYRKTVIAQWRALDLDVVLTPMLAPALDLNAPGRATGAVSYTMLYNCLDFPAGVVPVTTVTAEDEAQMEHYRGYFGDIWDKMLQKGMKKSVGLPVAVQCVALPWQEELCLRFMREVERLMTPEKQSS
Kind of data set: Lowest detection limits of microsomal FAAH toward colorimetric and fluorescent substrates. The class given is biochemical. Here is the method: (§1) Preparation of recombinant human FAAH. Transgenic expression of the human FAAH in a baculovirus system was performed by following the method described in Nishi et al., Arch. Biochem. Biophys., 445:115-123 (2006). The cDNA encoding human FAAH (GenBank Accession No. NM_001441) was amplified by PCR using a human liver cDNA library (Invitrogen; Carlsbad, Calif.) as a template. The primer pair was 5′-[…]-3′ and 5′-[…]-3′. BglII and EcoRI endonuclease sites (underlined) were incorporated just upstream of the start codon and downstream of the stop codon of the coding sequence of FAAH, respectively. The PCR products were cloned into a pCR2.1 vector (Invitrogen) and the nucleotide sequence was verified by DNA sequencing. The cDNA fragments were then excised and directionally ligated to the BglII and EcoRI sites of the baculovirus transfer vector pAcUW21 (Lopez-Ferber et al., Baculovirus transfer vectors, in “Baculovirus Expression Protocols,” Richardson (Ed.), pp 25-63, Humana Press, Totowa, N.J., 1995). Recombinant baculoviruses harboring the human FAAH gene, Ac-hFAAH, were generated by co-transfection of Spodoptera frugiperda-derived Sf21 cells with the recombinant transfer vector plasmid and Bsu36I-cleaved BacPAK6 viral DNA (Clontech Laboratories; Mountain View, Calif.) as described in O'Reilly et al., Baculovirus Expression Vectors: A Laboratory Manual, Oxford University Press, New York, 1992. Trichoplusia ni-derived High Five cells (1×10^6 cells/ml) were inoculated with a high titer of Ac-hFAAH. At 72 hours post-infection, the infected cells were harvested by centrifugation at 2,000×g for 20 min at 4° C. and suspended in 50 mM Tris-HCl (pH 8.0) containing 150 mM NaCl, 1 mM EDTA, 1 μM pepstatin, 100 μM leupeptin, and 0.1 mg/ml aprotinin. The cell suspension was then homogenized using a Polytron homogenizer and centrifuged at 10,000×g for 20 min at 4° C. The microsomal fraction was collected by ultracentrifugation of the supernatant at 100,000×g for 60 min at 4° C. The pellet was resuspended in 20 mM Tris-HCl (pH 8.0) containing 10% (w/v) glycerol and 1% (w/v) Triton-X 100 and stored at −80° C. until use.
(§2) Comparison of the lowest detection limits of protein concentration of FAAH toward colorimetric and fluorescent substrates. In general, all assays were performed in 96-well styrene flat-bottom microtiter plates with a Spectra Max M2 spectrophotometer at 37° C. for […]. The total volume of each well was 201 μl consisting of 0.1 M sodium phosphate buffer (pH 8.0) (190 μl) containing 1% glycerol and 0.1% Triton-X 100, stock or diluted protein solution (10 μl), and the substrate solution (1 μl) in ethanol (final concentration 200 μM for 10, 11, 13 or 14) or in DMSO (final concentration 25 μM for 12, 15, or 16; 50 μM for 17). The lowest detection limits of microsomal fatty acid amide hydrolase (FAAH) by substrates were determined by the fact that the signal at 10 min after kinetic measurements are equal to or over three times the noise or basal line at 0 min. Colorimetric substrate (16) assays were performed in clear 96-well microtititer plates using an absorbance wavelength at 382 nm. The fluorescent substrates containing 5-amino-2-methoxypyridine (e.g., 10, 13) were measured at an excitation wavelength (302 nm), emission wavelength (396 nm), and auto cutoff wavelength (325 nm). Similarly, the fluorescent substrates containing 5-amino-2-methoxy-6-methylpyridine (e.g., 11, 14, and 17) were measured at an excitation wavelength (304 nm), emission wavelength (392 nm), and an auto cutoff wavelength of 325 nm. In addition, an excitation wavelength (366 nm), emission wavelength (496 nm), and auto cutoff wavelength (495 nm) were used for the substrates (e.g., 12 and 15) containing 7-amino-4-trifluoromethyl coumarin.

Data set [7] concerns the target T2, human FAAH, microsomes from FAAH cells (Homo sapiens, UniProt O00519).
T2 construct: made in house; host or cells: Trichoplusia ni High Five cells infected with recombinant baculovirus Ac-hFAAH; microsomal fraction
T2 sequence (O00519 1-579): T1 sequence (O00519 1-579)
The data set can be described thus: Specific activity, microsomes from FAAH cells. It is filed as biochemical. Here is the method: as §1, §2
Specific activity determination. The assays for specific activities were performed as described above for the sensitivity assay. […]

A further data set concerns amidases, human liver S9. Kind of data set: Specific activity, human liver S9. As to conditions: pH 8.0, 37° C.; NM = not measurable at the same protein concentration as other substrates. It is filed as biochemical. As to the method: as §2, with “Similarly, the fluorescent substrates containing 5-amino-2-methoxy-6-methylpyridine (e.g., 11, 14, and 17) were measured at an excitation wavelength (304 nm), emission wavelength (392 nm), and an auto cutoff wavelength of 325 nm. In addition, an excitation wavelength (366 nm), emission wavelength (496 nm), and auto cutoff wavelength (495 nm) were used for the substrates (e.g., 12 and 15) containing 7-amino-4-trifluoromethyl coumarin.” left out

In data set [8] the test system is amidases, human liver microsomes. Kind of data set: Specific activity, human liver microsomes. The class given is biochemical. As to the method: as §2
Specific activity determination. The assays for specific activities were performed as described above for the sensitivity assay. The specific activity presented is based on the following: 1) the signal after a 10 min enzymatic reaction was at least 3 fold the baseline signal at 0 min, and 2) the amount of hydrolyzed substrate during a 10 min period was less than 10% of the total amount of the substrate added. To correct for protein-induced fluorescence quenching, a standard curve of 5-amino-2-methoxypyridine (6) or 5-amino-2-methoxy-6-methylpyridine (8) was constructed in the presence of the same protein concentration used for the assay of that enzyme.
(In general: Microsomes from liver hold many membrane-bound enzymes, among them those of drug oxidation.)

In data set [9] the test system is amidases, microsomes from High Five cells. The data set can be described thus: Specific activity, microsomes from High Five cells. As to conditions: pH 8.0, 37° C.; NM = not measurable at the same protein concentration as other substrates.
Method: Preparation of recombinant human FAAH. Transgenic expression of the human FAAH in a baculovirus system was performed by following the method described in Nishi et al., Arch. […] The cDNA encoding human FAAH (GenBank Accession No. NM—001441) was amplified by PCR using a human liver cDNA library (Invitrogen; Carlsbad, Calif.) as a template. The primer pair was 5′-[sequence]-3′ and 5′-[sequence]-3′. BglII and EcoRI endonuclease sites (underlined) were incorporated just upstream of the start codon and downstream of the stop codon of the coding sequence of FAAH, respectively. The PCR products were cloned into a pCR2.1 vector (Invitrogen) and the nucleotide sequence was verified by DNA sequencing. The cDNA fragments were then excised and directionally ligated to the BglII and EcoRI sites of the baculovirus transfer vector pAcUW21 (Lopez-Ferber et al., Baculovirus transfer vectors, in “Baculovirus Expression Protocols,” Richardson (Ed.), pp 25-63, Humana Press, Totowa, N.J., 1995). Recombinant baculoviruses harboring the human FAAH gene, Ac-hFAAH, were generated by co-transfection of Spodoptera frugiperda-derived Sf21 cells with the recombinant transfer vector plasmid and Bsu36I-cleaved BacPAK6 viral DNA (Clontech Laboratories; Mountain View, Calif.) as described in O'Reilly et al., Baculovirus Expression Vectors: A Laboratory Manual, Oxford University Press, New York, 1992. Trichoplusia ni-derived High Five cells (1×10^6 cells/ml) were inoculated with a high titer of Ac-hFAAH. At 72 hours post-infection, the infected cells were harvested by centrifugation at 2,000×g for 20 min at 4° C. and suspended in 50 mM Tris-HCl (pH 8.0) containing 150 mM NaCl, 1 mM EDTA, 1 μM pepstatin, 100 μM leupeptin, and 0.1 mg/ml aprotinin. The cell suspension was then homogenized using a Polytron homogenizer and centrifuged at 10,000×g for 20 min at 4° C. […]
Comparison of the lowest detection limits of protein concentration of FAAH toward colorimetric and fluorescent substrates. […] The lowest detection limits of microsomal fatty acid amide hydrolase (FAAH) by substrates were determined by the fact that the signal at 10 min after kinetic measurements are equal to or over three times the noise or basal line at 0 min. Colorimetric substrate (16) assays were performed in clear 96-well microtititer plates using an absorbance wavelength at 382 nm. The fluorescent substrates containing 5-amino-2-methoxypyridine (e.g., 10, 13) were measured at an excitation wavelength (302 nm), emission wavelength (396 nm), and auto cutoff wavelength (325 nm). Similarly, the fluorescent substrates containing 5-amino-2-methoxy-6-methylpyridine (e.g., 11, 14, and 17) were measured at an excitation wavelength (304 nm), emission wavelength (392 nm), and an auto cutoff wavelength of 325 nm. […]
The mark [10] stands for this setting: pH 8.0, 37° C., NM = not measurable at the same protein concentration as other substrates.

Read-outs that look alike come from different tables or passages of the source. Marks after values point to notes of the source that are not given here.

`Nc1cccnc1` [Compound 1, 3-aminopyridine]: the “εmax, molar extinction coefficient” value in data set [1] is 2890 M⁻¹ cm⁻¹; in [3], 2800 M⁻¹ cm⁻¹. For the same molecule, the “Em, maximal emission wavelength” value in data set [2] came to 378 nm. For the same molecule, the “Ex, maximal excitation wavelength” value in data set [2] came to 286 nm. Further, the quantum yield was 1.07 in data set [4] (in 0.1 NH2SO4, Rusakowicz et al.) and 0.03 in [4] (in 1 N NaOH, Rusakowicz et al.). The “ØF, fluorescence quantum yield” value is listed as 0.32^d in data set [4] and 0.32 in data set [4] (listed as 3-aminopyridine).
In the case of `CCCCCCCC(=O)Nc1ccc(OC)nc1C` [Compound 14, N-(6-methoxy-2-methylpyridin-3-yl) octanamide], the melting point lay within 67.4 to 68.2 °C. Also, the “aqueous solubility compared with coumarin substrate (15)” value in [5] was “much higher solubility”. The “base line, Average” value in [6] (0 min, protein 0.11 (13), 0.67 (14), 100 (15), 0.5 (17) μg/well, 200 μM (13),(14), 25 μM (15), 50 μM (17)) came out at 194 RFU. In addition, the “signal, Average” value in [6] (10 min, protein 0.11 (13), 0.67 (14), 100 (15), 0.5 (17) μg/well, 200 μM (13),(14), 25 μM (15), 50 μM (17)) was 728* RFU. Besides, the “Protein, lowest detection limit of microsomal FAAH (signal at 10 min ≥ three times base line)” value in data set [6] (pH 8.0, 37° C., 200 μM (13), (14), 50 μM (17)) stood at 0.67 μg/200 μ′. Besides, in data set [6] (signal at 10 min equal to three times base line), the “lowest detection limit of protein” value worked out at 3.3 μg protein/ml. Moreover, in [7], the “enhancement of activity, microsomes from FAAH-expressing cells compared with High Five cells” value was determined as 31 times. Further, the “Specific activity, Microsomes from FAAH cells” value in data set [7] (setting [10]) is 19.0 ± 0.5 nmol/min/mg protein. Further, the “Specific activity, Human liver S9” value in the data set on amidases, human liver S9 amounted to 0.42 ± 0.01 nmol/min/mg protein. For the same molecule, the “preference of human liver microsomes for substrate (14) over (13)” value in data set [8] (Table 4) was “at least 15 times”. Further, the “Specific activity, Human liver microsomes” value in data set [8] (setting [10]) worked out at 6.90 ± 0.25 nmol/min/mg protein. Further, in data set [9], the “Specific activity, Microsomes from High Five cells” value came out at 591 ± 18.4 pmol/min/mg protein.

For orientation: melting point means the temperature of the solid-liquid transition.
